The test system of data set [1] is CHO K1 cells. The data set can be described thus: eGFP DNA plasmid transfection, GFP expression by FACS (FIG. 10, FIG. 11). Conditions: for % GFP positive cells (transfection efficiency): 5 μg/mL dose. Type of data set: cell-based, Chinese hamster. How it is done:
Medium was then changed, and cells were incubated for another 24 h to allow for GFP plasmid expression; cells were detached by trypsin treatment and analyzed for GFP expression by FACS; Lipofectamine is denoted as LFA; the value obtained with DNA plasmid only was subtracted from each entry above (almost negligible);
In order for the ‘therapy’ to be effective, the DNA must escape from the endosome and enter the cell's nucleus, be transcribed to a regulatory, non coding RNA (RNAi) or to mRNA that is translated into its coded protein. Therefore, we investigated the conjugate-assisted expression of an eGFP DNA plasmid encoding for the green fluorescent protein (GFP). CHO cells, which were successfully transfected, were easily identified by their green fluorescence. Control experiments conducted with only the eGFP DNA plasmid (and no lipid carrier) gave virtually no fluorescence. A gate or instrumental threshold was set based upon this low background fluorescence. Fluorescence detected above this background was considered a positive response.
Medium was then changed, and cells were incubated for another 24 h to allow for GFP plasmid expression. Cells were detached by trypsin treatment and analyzed for GFP expression by FACS. Lipofectamine is denoted as LFA. The value obtained with DNA plasmid only was subtracted from each entry above (almost negligible).
A gate was set just above the threshold measured with no DNA plasmid and no conjugate added (almost negligible). […] Data are presented as the mean±SD.
(§1) GFP transfection experiments—eGFP encoding DNA plasmid with or without cationic lipid was mixed in F12K and incubated with pre-rinsed, sub-confluent cells in 24-well plates for 4 h, followed by another incubation period of 24 h in growth medium. Cells were then washed with PBS, detached by trypsin treatment, dissolved in PBS, 1% BSA, and analyzed by FACS for GFP expression.

Data set [2] concerns CHO K1 cells. To be noted: for DNA uptake, fluorescence of imported Alexa Fluor-488-DNA: 5 μg/mL cationic lipid (black bars, FIG. 8), 1 μg/mL DNA, 4 h at 37° C.; for DNA uptake compared with the lipofectamine control: 0.5, 2.5, 5 μg/mL; for increase in DNA uptake/delivery over diamine 22: FIG. 8, 5 μg/mL dose.
Procedure: CHO K1 cells were grown to confluence in 24-well plates, rinsed with medium and incubated for 4 h at 37° C. with 1 μg/mL Alexa Fluor-488-DNA complexed with 0.5 μg/mL (white bars), 2.5 μg/mL (gray bars), or 5 μg/mL (black bars) of the respective cationic lipid, as indicated above each entry; cells were then extensively washed with PBS, treated with trypsin, and cell pellets were again extensively washed with PBS 1% BSA to completely remove non-specific fluorescence from the cell exterior; finally, cells were analyzed for Alexa Fluor-488-DNA uptake by flow cytometry on a FACSCalibur (BD Biosciences) operated by Cell-Quest software.
CHO K1 cells were grown to confluence in 24-well plates, rinsed with medium and incubated for 4 h at 37° C. with 1 μg/mL Alexa Fluor-488-DNA complexed with 0.5 μg/mL (white bars), 2.5 μg/mL (grey bars), or 5 μg/mL (black bars) of the respective cationic lipid, as indicated above each entry. Cells were then extensively washed with PBS, treated with trypsin, and cell pellets were again extensively washed with PBS 1% BSA to completely remove non-specific fluorescence from the cell exterior. Finally, cells were analyzed for Alexa Fluor-488-DNA uptake by flow cytometry on a FACSCalibur (BD Biosciences) operated by Cell-Quest software.
A gate was set just above the threshold signal for control cells (DNA only with no lipid conjugate). […] Data are presented as the mean±SD.
AlexaFluor-488 labeled DNA with or without cationic lipid was mixed in serum-free F12K and added to extensively rinsed cells grown in 24-well plates. Cells were then incubated for 4 h at 37° C. After removal of the incubation medium and rinsing with PBS, cells were detached with trypsin followed by extensive washing with ice-cold PBS, 1% (w/v) bovine serum albumin (BSA) to remove non-specific fluorescence. Finally, cells were suspended in PBS, 1% BSA and analyzed for DNA uptake by flow cytometry on a FACSCalibur (BD Biosciences) operated by Cell-Quest software.
The subject of data set [3] is HeLa cells. The data set can be described thus: Sensitization to FGF-saporin intoxication in non-target HeLa cells. Type of data set: cell-based. To be noted: which do not express the FGF receptor.
The subject of data set [4] is polyamine transporter, PAT. The data set can be described thus: [14C]Spermine uptake inhibition (competition assay) in CHO-K1 cells (FIG. 12). Type of data set: cell-based, Chinese hamster. The source says:
We theorized that 26 may be using the polyamine transporter, PAT, for cellular entry. […] This observation implied that 26 was able to compete for the polyamine recognition sites on the cell surface (e.g., PAT). Therefore, it is possible that certain lipophilic polyamines, which present the correct polyamine ‘message’, may be able to recognize and target cells expressing high levels of polyamine transporters on their cell surface (e.g., cancer cells, rapidly dividing tumors, etc.). However, as shown in this report, delivery into the cell is just one step in successful gene transfection. Nevertheless, the findings disclosed herein are an important first step in developing ‘smart’ transfection agents.

For data set [5], the system named is DU145 human prostate cancer cells. The data set can be described thus: Lipopolyamine-induced sensitization to FGF-saporin intoxication, DU145. Type of data set: cell-based. As to the method: (§2) We have also documented lipopolyamine-induced toxin sensitization with two other saporin-based toxins: (i) FGF-saporin, a chemical conjugate between fibroblast growth factor and saporin; and (ii) the OKT10 immunotoxin which consists of a chemical conjugate between saporin and an antibody that recognizes the CD38 cancer antigen. DU145 human prostate cancer cells exposed to lipopolyamine 26 and FGF-saporin were 85-fold more sensitive to intoxication than cells incubated with FGF-saporin alone. […] We have also shown that Ramos human leukemia cells exposed to lipopolyamine 26 and OKT10 are 100-fold more sensitive to intoxication than cells incubated with OKT10 alone.

The test system of data set [6] is Ramos human leukemia cells. As to the kind of experiment: Sensitization to OKT10 immunotoxin intoxication, Ramos. Type of data set: cell-based. How it is done:
as §2

Data set [7] deals with CHO K1 cells. Type of data set: cell-based. Conditions: Chinese hamster, 24 h, 0.5 μM. How it is done:
Taking these factors into account, cytotoxicity screens were performed to investigate the relative toxicity of each system. Most materials were relatively non-toxic with IC50 values ≧20 μM. Armed with this insight, cells were treated with ≦6.4 μM of the polyamine conjugate so as to avoid significant toxic effects from the delivery agent itself. Indeed, at this dose ≧90% of cells survived transfection for all compounds except 28. Indeed, compound 28 was very toxic (after 24 h incubation) and even at the lowest dose used for transfection (0.5 μg/mL; 0.5 μM 28) killed 95% of the cells. As such, 28 was too toxic for efficient transfection at the doses surveyed and its data is strongly biased by the few remaining cells, which survived.
as §1

The test system of data set [8] is HeLa cells. To be noted: cited from earlier work.

SMILES strings stand for the structures.

Take `CCCCCCCCC=CCCCCCCCCOc1ccc(CNCCCCN)cc1OCCCCCCCCC=CCCCCCCCC.Cl.Cl` [Compound 22, N^1-(3,4-Bis-octadec-9-enyloxy-benzyl)-butane-1,4-diamine, dihydrochloride salt]: the “% GFP positive cells (transfection efficiency)” value (“% GFP positive cells” for short) in the data set with CHO K1 cells [1] (FIG. 11) was determined as 38%. Besides, the “DNA uptake, fluorescence of imported Alexa Fluor-488-DNA” value (“DNA uptake, fluorescence” below) in the data set with CHO K1 cells [2] is reported as 94 a.u.
For the molecule `CCCCCCCCC=CCCCCCCCCOc1ccc(CNCCCCCCCCN)cc1OCCCCCCCCC=CCCCCCCCC.Cl.Cl` [Compound 23, N^1-(3,4-Bis-octadec-9-enyloxy-benzyl)-octane-1,8-diamine, dihydrochloride salt], the “% GFP positive cells” value in the data set with CHO K1 cells [1] (FIG. 11) was determined as 23%. In the data set on CHO K1 cells [1] (5 μg/mL, FIG. 10), this molecule displayed a GFP expression/cell of 5 a.u. Besides, the “positive cells of the total cell population after DNA uptake experiment” value with CHO K1 cells [2] (5 μg/mL, black bars in FIG. 9, gated) came to 84%.
With `CCCCCCCCC=CCCCCCCCCOc1ccc(CNCCOCCOCCN)cc1OCCCCCCCCC=CCCCCCCCC.Cl.Cl` [Compound 24, 2-{2-[2-(3,4-Bis-octadec-9-enyloxy-benzylamino)-ethoxy]-ethoxy}-ethylamine, dihydrochloride salt], the “% GFP positive cells” value with CHO K1 cells [1] (FIG. 11) came out at 25%. The molecule further registered a GFP expression/cell in the data set on CHO K1 cells [1] (5 μg/mL, FIG. 10) of 7 a.u. In the data set with CHO K1 cells [2] (FIG. 8), the “DNA uptake compared with the lipofectamine control” value was “as good” and the “DNA delivery (DNA probe fluorescence) of polyether eight-atom spacer versus octanediamine analogue” value is “nearly doubled”.
Take `CCCCCCCCC=CCCCCCCCCOc1ccc(CNCCCCNCCCCN)cc1OCCCCCCCCC=CCCCCCCCC.Cl.Cl.Cl` [Compound 25, N-(4-Amino-butyl)-N′-(3,4-bis-octadec-9-enyloxy-benzyl)-butane-1,4-diamine, tri hydrochloride salt]: in the data set with CHO K1 cells [1] (FIG. 11), the “% GFP positive cells” value was 49% and the “transfection efficiency compared with 22” value is “only slightly higher transfection efficiency than 22”. Besides, in the data set with CHO K1 cells [2], the “DNA uptake, fluorescence” value turned out to be 281 a.u and the “increase in DNA uptake/delivery over diamine 22” value (“increase in DNA uptake/delivery” below) is given as 3 fold. In the data set with CHO K1 cells [2] (FIG. 8), the “DNA uptake compared with the lipofectamine control” value is recorded as “as good” and the “DNA delivery compared with 22” value is listed as “three-fold increase”.
For `CCCCCCCCC=CCCCCCCCCOc1ccc(CNCCCCNCCCCNCCCCN)cc1OCCCCCCCCC=CCCCCCCCC.Cl.Cl.Cl.Cl` [Compound 26, N-[4-(4-Amino-butylamino)-butyl]-N′-(3,4-bis-octadec-9-enyloxy-benzyl)-butane-1,4-diamine, tetrahydrochloride salt], the “sensitization of non-target cells to FGF-saporin” value in the data set on HeLa cells [3] is reported as “no more sensitive to intoxication”. Besides, in data set [4] (1 μM [14C]spermine, 20 min, serum free medium, CHO-K1), the IC50 (usually the concentration that gives 50% inhibition) is about 10 µM. For the same molecule, the “polyamine uptake inhibition” value in data set [4] (FIG. 12 legend) is on record as “efficient inhibitor of polyamine uptake”. For the same molecule, the “sensitivity to FGF-saporin intoxication versus FGF-saporin alone” value in data set [5] stood at 85 fold. In data set [6], the “sensitivity to OKT10 intoxication versus OKT10 alone” value worked out at 100 fold. Also, in the data set with CHO K1 cells [1] (FIG. 11), the “% GFP positive cells” value stood at 67% and the “% of GFP positive cells relative to LFA” value stood at 1.5 fold. In addition, in the data set on CHO K1 cells [1] (5 μg/mL, FIG. 10), the GFP expression/cell was 25 a.u. In addition, in the data set with CHO K1 cells [1] (5 μg/mL, FIG. 11), the “higher transfection efficiency than the LFA control” value was “over 50%”. In addition, in the data set on CHO K1 cells [1] (FIG. 10), the “relative GFP expression/cell versus LFA” value is recorded as “two fold higher”. In the data set on CHO K1 cells [2], the “DNA uptake, fluorescence” value came to 504 a.u and the “increase in DNA uptake/delivery” value is given as over 5 fold. Further, the “DNA uptake compared with the lipofectamine control” value with CHO K1 cells [2] (FIG. 8) is on record as “better”. In addition, the “DNA delivered to the cell relative to control LFA” value with CHO K1 cells [2] (black bars in FIG. 8, 5 μg/mL) turned out to be 3 fold.
For `CCCCCCCCC=CCCCCCCCCOc1ccc(C(=O)NCCCCNCCCCN)cc1OCCCCCCCCC=CCCCCCCCC.Cl.Cl` [Compound 27, N-[4-(4-Amino-butylamino)-butyl]-3,4-bis-octadec-9-enyloxy-benzamide, dihydrochloride salt], in the data set on CHO K1 cells [1] (FIG. 11), the “% GFP positive cells” value is given as 40% and the “transfection efficiency compared with 22” value is reported as “nearly identical transfection efficiency”. In addition, in the data set on CHO K1 cells [2] (FIG. 8), the “DNA uptake compared with the lipofectamine control” value is listed as “better” and the “DNA delivery compared with 22” value was “more efficient DNA delivery agent than 22”. For the same molecule, the “increase in DNA uptake/delivery” value with CHO K1 cells [2] is “greater than 4 fold”.
`CCCCCCCCC=CCCCCCCCCOc1ccc(C(=O)NCCCCNCCCCNCCCCN)cc1OCCCCCCCCC=CCCCCCCCC.Cl.Cl.Cl` [Compound 28, N-{4-[4-(4-Amino-butylamino)-butylamino]-butyl}-3,4-bis-octadec-9-enyloxy-benzamide, trihydrochloride salt] gave a cells killed in the data set on CHO K1 cells [7] of 95%.
As for `CCCCCCCCCCCCCCCCCCN(CCCCCCCCCCCCCCCCCC)C(=O)CNC(=O)CNCCCNCCCCNCCCN` [RPR 120535], in the data set on HeLa cells [8], the “more effective at transfection than branched-, globular- or T-shaped polar domains” value is 5-10 times.
